Earlier results in patent US20080279952A1, “Controlled-Release Flupirtine Compositions, Compacts, Kits and Methods of Making and Use Thereof” (priority 2007, published 2008).

What was measured:
[1] = in vivo
[2] = in vivo; remark: listed apart in the source

Row | SMILES | analgesic effect as percentage of that of flupirtine [1] | portion of the administered dose metabolized in the liver [2]
1 | CC(=O)Nc1ccc(NCc2ccc(F)cc2)nc1N [2-amino-3-acetamino-6-(4-fluor)-benzyl-amino-pyridine] | about 25% | –
2 | CCOC(=O)Nc1ccc(NCc2ccc(F)cc2)nc1N [flupirtine] | – | Approximately 75%
